Among the test systems are HT-29; HCC 2998; SF-268; SR; RXF 393; M19-MEL; U-251; SN12C; OVCAR-5; HOP-92; 786-0; SK-OV-3; KM-20L2; UO-31; NCI-H460; HCT-116; LOX IMVI; TK-10.
What all share (assay): growth of human tumour cells (NCI), 48 h

The text below walks through data of ChEMBL document CHEMBL1201862, “PubChem BioAssay data set” (2004).

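Cells were grown in 96-well plates and exposed to each compound for 48 hours at five concentrations; endpoints were interpolated linearly between bracketing concentrations, or set to the highest concentration if not reached. GI50 = concentration required for 50% inhibition of growth.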 Activity calls are given as the source filed them. No stated cut-off is given here; in the data, active = GI50 up to about 1.1 µM and inactive = higher.

As for `COc1cccc(NC(=O)CC(=O)N2N=C(N(CCC#N)c3ccccc3C)CC2c2ccccc2)c1` (stereo not drawn), the GI50 in the test on HT-29, in the test on HCC 2998, with SF-268, in the test with SR, in the test with RXF 393 and in the test with M19-MEL was > 100 µM (inactive) in each case. Besides, the GI50 with U-251, in the test with SN12C, in the test with OVCAR-5, in the test with HOP-92, in the test on 786-0 and in the test with SK-OV-3 was > 100 µM (inactive) throughout. Also, the GI50 in the test with KM-20L2, in the test on UO-31, with NCI-H460 and in the test with HCT-116 was > 100 µM (inactive) in each case.
Turning to `[N-]=[N+]=NC(CBr)c1cn([C@H]2C[C@H](O)[C@@H](CO)O2)c(=O)[nH]c1=O` (stereo partly drawn), the GI50 in the test on HT-29, in the test on HCC 2998, in the test with SR, with RXF 393, in the test on LOX IMVI and in the test on M19-MEL was > 100 µM (inactive) each time. Moreover, the GI50 in the test with U-251, in the test on SN12C, with OVCAR-5, with HOP-92, in the test with 786-0 and in the test on TK-10 was > 100 µM (inactive) each time. The GI50 in the test with SK-OV-3, in the test on KM-20L2, in the test on UO-31, with NCI-H460 and in the test with HCT-116 was > 100 µM (inactive) in each case.
Consider `Nc1ncnc2c1ncn2C1OC(CSCC(F)(F)F)C(O)C1O` (stereo not drawn), for which the GI50 in the test on HT-29, with HCC 2998, in the test with SF-268, with SR, with RXF 393 and in the test on LOX IMVI was > 100 µM (inactive) throughout. Moreover, the GI50 with M19-MEL, with U-251, in the test with SN12C, in the test with OVCAR-5, in the test on HOP-92 and in the test with 786-0 was > 100 µM (inactive) in each case. Besides, the GI50 with TK-10, with SK-OV-3, in the test on KM-20L2, with UO-31, with NCI-H460 and in the test with HCT-116 was > 100 µM (inactive) each time.
Take `COC1OC(CO)C(O)C(NC(=O)N(C)N=O)C1O` (stereo not drawn): the GI50 in the test on HT-29, in the test on HCC 2998, in the test on SF-268, with SR, in the test on RXF 393 and in the test with M19-MEL was > 100 µM (inactive) in each case. In addition, the GI50 with U-251, in the test on SN12C, in the test on HOP-92, with 786-0, in the test on TK-10 and in the test on SK-OV-3 was > 100 µM (inactive) each time. Also, the GI50 with KM-20L2, in the test on UO-31, in the test on NCI-H460 and in the test on HCT-116 was > 100 µM (inactive) throughout.
In the case of `CN(C)C(=S)/N=c1\ss/c(=N\S(=O)(=O)c2ccccc2)n1C`, the GI50 in the test with HT-29, with HCC 2998, in the test with SF-268, in the test with SR, with RXF 393 and in the test on LOX IMVI was > 100 µM (inactive) throughout. In addition, the GI50 with M19-MEL, with U-251, in the test with SN12C, in the test on OVCAR-5, with HOP-92 and in the test on 786-0 was > 100 µM (inactive) each time. In addition, the GI50 in the test on TK-10, in the test on SK-OV-3, with KM-20L2, in the test on UO-31, with NCI-H460 and in the test with HCT-116 was > 100 µM (inactive) in each case.
Take `CN1C(=O)C2C3C=C4c5ccccc5N(c5ccccc5)C4(C2C1=O)[C@H]1C(=O)N(C)C(=O)[C@@H]31` (stereo partly drawn): the GI50 in the test on HT-29, with HCC 2998, in the test on SF-268, in the test with SR, in the test on LOX IMVI and in the test on M19-MEL was > 100 µM (inactive) throughout. Besides, the GI50 with U-251, in the test with SN12C, with OVCAR-5, in the test on HOP-92, with 786-0 and with TK-10 was > 100 µM (inactive) throughout. The GI50 in the test on SK-OV-3, with KM-20L2, in the test on UO-31, with NCI-H460 and in the test on HCT-116 was > 100 µM (inactive) in each case.
Regarding `CCOC(=O)N1C(c2ccccc2)C=CC(c2ccccc2)N1C(=O)OCC` (stereo not drawn), the GI50 with HT-29, in the test with SF-268, in the test with SR, in the test with RXF 393, in the test with LOX IMVI and with M19-MEL was > 100 µM (inactive) throughout. For the same compound, the GI50 with U-251, in the test on SN12C, in the test on OVCAR-5, in the test with HOP-92, with 786-0 and in the test on TK-10 was > 100 µM (inactive) in each case. Further, the GI50 with KM-20L2, with NCI-H460 and in the test on HCT-116 was > 100 µM (inactive) each time.
As to `COc1ccc(C(=O)NCCN(C)C)c2nc3ccccc3nc12`, the GI50 in the test with HT-29 is 2.76 µM (inactive); in the test on HCC 2998, 5.15 µM (inactive); with SR, 0.708 µM (active); with RXF 393, 11.4 µM (inactive); in the test on LOX IMVI, 2.01 µM (inactive); with M19-MEL it was 3.15 µM (inactive). For the same compound, the GI50 in the test on U-251 was 4.79 µM (inactive); in the test on SN12C, 3.62 µM (inactive); in the test with OVCAR-5 it was 8.61 µM (inactive); in the test with HOP-92 it was 9.51 µM (inactive); with 786-0 it was 9.06 µM (inactive); with TK-10 it was 5.18 µM (inactive). Moreover, the GI50 in the test with SK-OV-3 was 19.5 µM (inactive); with KM-20L2, 4.95 µM (inactive); in the test on HCT-116, 2.24 µM (inactive).
With `COC(=O)Cc1cc(=O)n2c3ccccc3n(C)c2c1C#N`, the GI50 with HT-29, in the test on HCC 2998, in the test on SF-268, in the test on SR, in the test on RXF 393 and in the test on LOX IMVI was > 100 µM (inactive) each time. Also, the GI50 with M19-MEL, in the test with U-251, in the test on SN12C, in the test with OVCAR-5, in the test on 786-0 and in the test with TK-10 was > 100 µM (inactive) in each case. In addition, the GI50 with SK-OV-3, in the test with KM-20L2, in the test with UO-31, in the test with NCI-H460 and in the test with HCT-116 was > 100 µM (inactive) in each case.
`CN(C)CCNC(=O)c1cccc2nc3cc(Cl)ccc3nc12`: the GI50 is 1.36 µM (inactive) with HT-29; 2.65 µM (inactive) with HCC 2998; 0.531 µM (active) in the test with SR; 2.15 µM (inactive) in the test on RXF 393; 1.26 µM (inactive) with LOX IMVI; 1.8 µM (inactive) with M19-MEL. For the same compound, the GI50 with U-251 was 2.86 µM (inactive); in the test on SN12C, 2.07 µM (inactive); in the test on OVCAR-5, 3.05 µM (inactive); in the test on HOP-92, 5.77 µM (inactive); with 786-0, 3.79 µM (inactive); in the test on TK-10, 2.7 µM (inactive). Further, the GI50 is 5.94 µM (inactive) with SK-OV-3, 2.81 µM (inactive) in the test on KM-20L2, 4.26 µM (inactive) with UO-31 and 0.764 µM (active) in the test with HCT-116.
`c1ccc2cc3[s+]snc3cc2c1`: the GI50 in the test on HT-29, in the test on HCC 2998, in the test on SF-268, with SR, with RXF 393 and in the test with LOX IMVI was > 100 µM (inactive) in each case. Moreover, the GI50 in the test with M19-MEL is > 100 µM (inactive); in the test on U-251 it was 85.9 µM (inactive); in the test on SN12C, > 100 µM (inactive); with OVCAR-5, > 100 µM (inactive); in the test with 786-0, > 100 µM (inactive); in the test on TK-10 it was > 100 µM (inactive). Besides, the GI50 in the test with SK-OV-3, in the test on KM-20L2, with UO-31, with NCI-H460 and in the test on HCT-116 was > 100 µM (inactive) throughout.
In the case of `COc1ccc(N2C(=O)[C@@H](N=[N+]=[N-])[C@@H]2[C@H]2COC(C)(C)O2)cc1`, the GI50 with HT-29, in the test with HCC 2998, in the test with SF-268, with SR, with RXF 393 and with M19-MEL was > 100 µM (inactive) each time. Also, the GI50 in the test on U-251, with SN12C, in the test on OVCAR-5, with HOP-92, in the test on 786-0 and with SK-OV-3 was > 100 µM (inactive) in each case. Also, the GI50 in the test on KM-20L2, in the test with UO-31, in the test with NCI-H460 and in the test with HCT-116 was > 100 µM (inactive) each time.
